The values that follow come from patent publication US11020378B2, “Compounds, compositions and methods for treating insulin resistance” (UNIVERSITE PARIS DESCARTES, priority 2017, dated 2021).

In series [1] the test system is SREBP-1c, ACC, FAS and SCD1 expression. Briefly: Expression of lipogenesis genes in hepatocytes in primary culture (RT-qPCR). The format is cell-based, mouse. To be noted: condition G25i (25 mM glucose, 10 nM insulin), 24 h. How it is done: FIG. 7, the effect of the compound of Formula (Ia) according to the invention (black bars) on the expression of insulin target genes, SREBP-1c, ACC, FAS, and SCD1 (FIGS. 7A-D, respectively) involved in the lipogenesis pathway. Hepatocytes in primary culture are cultured in the presence of 5 mM glucose (G5) or 25 mM glucose (G25) and 10 nM insulin for 24 h. The relative quantification of mRNAs is performed by RT-qPCR. The values are related to the quantification of the 18S gene in the same sample in order to normalize the results. The results are the average of 3 to 5 independent experiments (*p<0.05 by Anova followed by a Newman-Keuls test).
Briefly, mouse hepatocytes in primary culture are cultured in the presence of 5 mM glucose (G5) or 25 mM glucose (G25), and 10 nM insulin for 24 h. The relative quantification of mRNAs is performed by RT-qPCR and the values are related to the quantification of the 18S gene from the same sample in order to normalize the results.
(In general: In qPCR the cycle at which signal appears reflects the starting amount.)

The target in series [2] is T1, IR-Grb14 interaction (Homo sapiens, UniProt P06213).
T1 construct: a vector encoding the insulin receptor fused to the luciferase (IR-Luc); made in house; host or cells: HEK293T (transfected); IR-Luc was partially purified on wheat germ lectin sepharose; Grb14-YFP was used as crude lysate
Briefly: Co-immunoprecipitation of IR-Luc with Grb14-YFP in a cell-free system (Western blot). To be noted: for reduction of the amount of co-precipitated IR-Luc: dose series, results not shown. The format is binding. How it is done:
The inhibitory effect of the compounds according to the invention on the IR-Grb14 interaction has been confirmed in co-immunoprecipitation experiments in a cell-free system. IR-Luc extracts, stimulated or not by insulin, […] before being incubated with the cellular extract containing the fusion protein Grb14-YFP for 40 minutes. Immunoprecipitation against YFP allows to analyze by Western blot the amount of receptor that has remained associated with the Grb14 protein.

Series [3] addresses T2, IRTK-Grb14 interaction (Homo sapiens, UniProt P06213).
T2 construct: a construct bearing only the tyrosine kinase domain of the luciferase-fused receptor (IRTK48-RLuc); expressed in transfected cells; host or cells: HEK 293T
Briefly: Co-immunoprecipitation of IRTK48-RLuc with Grb14-YFP in co-transfected HEK 293T cells. The format is cell-based. To be noted: 50 μM; 4 hours; no insulin. How it is done: HEK 293T cells co-transfected with a construct bearing only the tyrosine kinase domain of the luciferase-fused receptor (IRTK48-RLuc) and the Grb14 protein fused to YFP were incubated for 4 hours in the presence of compounds according to the invention. In the absence of α subunits, the tyrosine kinase domain of the insulin receptor spontaneously autophosphorylates, so it is not necessary to add insulin to stimulate the IRTK-Grb14 interaction.

Series [4] has as its system HEK293T cells. Put plainly: Growth and survival of HEK293T cells (resazurin fluorescence, 72 h). Format: cell-based. To be noted: 0.1% or 10% serum. How it is done:
In order to study the effect of the compound of Formula (Ia) on cell growth and survival, HEK293T cells were cultured for 72 h at different serum concentrations (0.1%, 1%, 10%), in the absence or presence of compounds of Formula (Ia) (50 or 100 μM). The fluorescence of the cells was measured before and after treatment using a reagent containing resazurin. Since the intensity of fluorescence is correlated with the number of living cells, cell growth is estimated by relating the fluorescence measured at 72 h of treatment to that measured at t0. The presence of serum promotes cell growth. Thus, after 72 h, an increase in the cell population of 7 times at 0.1% of serum and of 10 times at 1 or 10% of serum is observed.
Background: The colour change of resazurin is a common sign of viable cells or microbes.

A short description of series [5]: Repeat-dose toxicity study in C57Bl/6J mice. The format is in vivo. The protocol:
A repeat-dose toxicity study was also conducted in C57Bl/6J mice (12 males, 8 weeks old). Mice were treated daily either by gavage with 30 mg/kg/day of compound of Formula (Ia) diluted in 0.5% carboxymethylcellulose; or by intraperitoneal injection with 30 mg/kg/day of compound of Formula (Ia) diluted in DMSO, or with DMSO alone, for a period of 15 days.

T1 sequence (P06213 763-1382 limits assumed): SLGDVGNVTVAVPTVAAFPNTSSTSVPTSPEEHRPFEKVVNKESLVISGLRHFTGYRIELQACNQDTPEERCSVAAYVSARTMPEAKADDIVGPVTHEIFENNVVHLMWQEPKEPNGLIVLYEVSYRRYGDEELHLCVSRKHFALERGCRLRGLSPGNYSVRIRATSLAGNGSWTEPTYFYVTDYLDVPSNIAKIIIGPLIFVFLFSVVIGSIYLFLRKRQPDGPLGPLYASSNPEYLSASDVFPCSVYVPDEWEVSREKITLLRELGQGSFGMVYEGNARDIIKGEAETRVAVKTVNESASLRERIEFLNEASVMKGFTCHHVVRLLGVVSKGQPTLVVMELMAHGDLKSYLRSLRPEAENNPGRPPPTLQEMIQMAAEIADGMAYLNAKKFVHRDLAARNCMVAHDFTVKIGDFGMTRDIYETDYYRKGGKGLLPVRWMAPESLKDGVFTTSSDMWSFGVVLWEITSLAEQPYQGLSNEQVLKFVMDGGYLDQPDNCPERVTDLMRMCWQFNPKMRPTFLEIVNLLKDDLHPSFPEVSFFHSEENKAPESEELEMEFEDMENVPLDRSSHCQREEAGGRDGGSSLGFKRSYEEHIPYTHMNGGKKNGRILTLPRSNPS
T1 sequence (P06213 28-758 partner limits assumed): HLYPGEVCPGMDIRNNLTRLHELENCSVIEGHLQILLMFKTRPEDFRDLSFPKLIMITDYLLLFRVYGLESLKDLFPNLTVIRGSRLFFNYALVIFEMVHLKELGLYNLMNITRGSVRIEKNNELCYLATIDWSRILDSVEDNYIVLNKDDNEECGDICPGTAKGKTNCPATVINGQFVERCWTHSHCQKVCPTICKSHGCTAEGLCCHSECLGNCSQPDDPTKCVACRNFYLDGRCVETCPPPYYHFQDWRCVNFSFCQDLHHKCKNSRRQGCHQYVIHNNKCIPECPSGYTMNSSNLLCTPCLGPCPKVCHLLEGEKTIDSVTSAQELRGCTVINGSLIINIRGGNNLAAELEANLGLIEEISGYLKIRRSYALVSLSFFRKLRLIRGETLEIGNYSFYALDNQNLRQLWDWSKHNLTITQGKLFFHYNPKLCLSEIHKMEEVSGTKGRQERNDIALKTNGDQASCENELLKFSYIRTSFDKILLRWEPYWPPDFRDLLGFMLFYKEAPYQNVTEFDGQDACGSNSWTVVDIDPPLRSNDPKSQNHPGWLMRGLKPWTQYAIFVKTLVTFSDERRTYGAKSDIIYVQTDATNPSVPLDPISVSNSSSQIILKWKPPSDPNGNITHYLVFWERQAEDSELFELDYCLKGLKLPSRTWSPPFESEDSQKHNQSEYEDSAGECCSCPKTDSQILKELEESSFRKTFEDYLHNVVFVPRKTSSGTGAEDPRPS
T2 sequence (P06213 1023-1298 limits assumed): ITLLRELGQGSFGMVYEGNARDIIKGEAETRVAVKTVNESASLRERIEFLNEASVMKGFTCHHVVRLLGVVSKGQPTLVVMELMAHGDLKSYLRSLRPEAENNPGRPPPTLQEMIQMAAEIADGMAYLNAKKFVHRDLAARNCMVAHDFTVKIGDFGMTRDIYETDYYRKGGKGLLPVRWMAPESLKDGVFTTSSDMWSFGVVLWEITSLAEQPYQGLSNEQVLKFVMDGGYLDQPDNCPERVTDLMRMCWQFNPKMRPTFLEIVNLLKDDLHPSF

For the molecule `Cc1ccc(/C=C/C(=O)Nc2ccc(S(=O)(=O)Nc3onc(C)c3C)cc2)o1` [Ia], in series [1], the “increase of the effect of insulin on the expression of ACC” value is on record as “about 60%”, the “increase of the effect of insulin on the expression of FAS” value is given as “about 60%”, the “increase of the effect of insulin on the expression of SCD1” value was “about 60%” and the “increase of the effect of insulin on the expression of SREBP-1c” value is “about 60%”. For the same molecule, the “reduction of the amount of co-precipitated IR-Luc” value in series [2] (25 μM) was 20%. The “reduction of the amount of co-precipitated IR-Luc” value in series [2] (50 μM) is reported as 50%. The inhibition at 50 µM in series [2] (50 μM, in the presence of insulin, read-out: reduction of the amount of insulin receptors associated with the Grb14 protein) worked out at 60%. Moreover, in series [3], the “reduction of the amount of tyrosine kinase domain of the insulin receptor co-immunoprecipitated with the Grb14 protein” value came out at 75%. Besides, the cell growth rate result in series [4] (50 μM) is on record as “does not alter”. Moreover, the cell growth rate entry in series [4] (100 μM) is “does not alter”. The liver appearance result in series [5] (30 mg/kg/day by gavage or intraperitoneal injection) is “no difference”. Besides, the weight gain entry in series [5] (30 mg/kg/day by gavage or intraperitoneal injection, after 12 days of treatment) is listed as “no difference”. Also, in series [5] (30 mg/kg/day, regardless of the administration mode), the “blood glucose level measured in the post-absorptive state” value was “decrease”. Besides, the “toxic effect (overall conclusion)” value in series [5] (HEK293T cells and repeat-dose mouse study) was “no detectable toxic effect”.
